Structures can show the parent of a compound that is named as a salt.
What was measured:
TNKS2 = target: T1, TNKS2 (Homo sapiens, UniProt Q9H2K2); assay: TNKS2 Assay B (auto-parsylation, [3H]-NAD+ SPA); assay type: biochemical; details: 6 nM TNKS2, auto-parsylation, over night at room temperature
T1 construct: purchased BPS Bioscience, San Diego, USA 80572 (TNKS2 Histone Ribosylation Assay Kit)
T1 sequence (Q9H2K2 1-1166): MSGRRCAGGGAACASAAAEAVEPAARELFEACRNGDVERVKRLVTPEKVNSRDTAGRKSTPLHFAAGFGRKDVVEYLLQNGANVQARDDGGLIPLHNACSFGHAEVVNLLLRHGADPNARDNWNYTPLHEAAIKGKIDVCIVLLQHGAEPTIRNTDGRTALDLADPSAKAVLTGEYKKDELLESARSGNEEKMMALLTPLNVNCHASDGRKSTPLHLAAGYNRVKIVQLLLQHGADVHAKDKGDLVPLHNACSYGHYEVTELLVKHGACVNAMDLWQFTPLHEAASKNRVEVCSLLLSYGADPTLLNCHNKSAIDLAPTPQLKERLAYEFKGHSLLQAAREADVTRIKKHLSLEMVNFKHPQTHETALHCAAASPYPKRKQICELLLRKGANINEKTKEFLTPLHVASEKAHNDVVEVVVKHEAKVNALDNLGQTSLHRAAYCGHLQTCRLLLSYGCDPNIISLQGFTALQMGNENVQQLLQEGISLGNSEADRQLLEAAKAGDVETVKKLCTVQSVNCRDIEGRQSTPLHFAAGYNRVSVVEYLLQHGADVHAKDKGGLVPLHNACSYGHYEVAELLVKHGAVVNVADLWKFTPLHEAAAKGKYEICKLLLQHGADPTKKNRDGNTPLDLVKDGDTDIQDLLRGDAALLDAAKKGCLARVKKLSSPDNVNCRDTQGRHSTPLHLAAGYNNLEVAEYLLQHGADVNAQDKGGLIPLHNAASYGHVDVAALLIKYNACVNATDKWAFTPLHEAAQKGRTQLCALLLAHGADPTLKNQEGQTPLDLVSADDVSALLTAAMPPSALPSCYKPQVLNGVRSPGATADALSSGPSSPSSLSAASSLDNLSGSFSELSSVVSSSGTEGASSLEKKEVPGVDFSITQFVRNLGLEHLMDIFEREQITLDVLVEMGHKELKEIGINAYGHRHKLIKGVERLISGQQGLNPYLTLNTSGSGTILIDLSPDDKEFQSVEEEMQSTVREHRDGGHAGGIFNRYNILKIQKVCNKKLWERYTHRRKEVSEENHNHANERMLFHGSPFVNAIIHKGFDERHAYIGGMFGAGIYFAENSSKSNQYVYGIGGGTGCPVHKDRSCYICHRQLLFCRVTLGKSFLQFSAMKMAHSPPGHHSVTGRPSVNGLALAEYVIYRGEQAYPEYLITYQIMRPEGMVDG

[1] = tested on: HEK293 cells cotransfected with the FOP control vector; assay: HEK293 FOP assay (control reporter with non-functional TCF elements); assay type: cell-based; details: Homo sapiens, 16 hours
In short: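 Stable HEK293 line carrying FOP control reporter (randomized non-functional TCF sites, with pcDNA3), Geneticin-selected, plated 24 h before assay. Stimulated with recombinant human Wnt-3a (2500-5 ng/ml) and compounds 50 μM–15 nM (3.16-fold steps) in CAFTY buffer pH 7.4 with 2 mM Ca2+, 0.01% BSA, run parallel to TOP line.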

[2] = tested on: wildtype Wnt signaling cascade; assay: HEK293 TOP assay (Super TopFlash luciferase reporter, Wnt-3a stimulated); assay type: cell-based; details: Homo sapiens, HEK293, 16 h, HEK293 TOP reporter cells, Wnt3a at EC50, 16 hours
In short: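 HEK293 cells stably carrying Super TopFlash (TOP) run in parallel with FOP cells, 10000/well plated 24 h ahead, stimulated with recombinant human Wnt-3a. Compounds tested 50 μM to 15 nM in 3.16-fold steps in CAFTY buffer pH 7.4 with 2 mM Ca^2+ and 0.01% BSA; luciferase read-out.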

Row | Structure (SMILES) | IC50 (TNKS2) | IC50 [2] | IC50 [1]
1 | O=C(N[C@H]1CC[C@H](C(=O)Nc2ccc(F)cc2Cl)CC1)c1cnc2ccccn12 [Example 206, N-{trans-4-[(2-chloro-4-fluorophenyl)carbamoyl]cyclohexyl}imidazo[1,2-a]pyridine-3-carboxamide] | > 10 µM | 0.5 µM | 25 µM
2 | Cc1cc(C)n2ncc(C(=O)N[C@H]3CC[C@]4(CCN(c5ccc(F)cc5)C4=O)CC3)c2n1 [Example 208, N-[(cis)-2-(4-fluorophenyl)-1-oxo-2-azaspiro[4.5]dec-8-yl]-5,7-dimethyl pyrazolo[1,5-a]pyrimidine-3-carboxamide] | 3.2 µM | 0.66 µM | ≥ 50 µM
3 | O=C(N[C@H]1CC[C@@]2(CCN(c3ccc(F)cc3)C2=O)CC1)c1cnn2cccnc12 [Example 209, N-[(trans)-2-(4-fluorophenyl)-1-oxo-2-azaspiro[4.5]dec-8-yl]pyrazolo[1,5-a]pyrimidine-3-carboxamide] | 0.24 µM | 0.099 µM | ≥ 50 µM
4 | Cc1cnc2c(C(=O)N[C@H]3CC[C@@]4(CCN(c5ccc(F)cc5)C4=O)CC3)cnn2c1 [Example 210, N-[(trans)-2-(4-fluorophenyl)-1-oxo-2-azaspiro[4.5]dec-8-yl]-6-methylpyrazolo[1,5-a]pyrimidine-3-carboxamide] | 0.092 µM | 0.28 µM | 25 µM
5 | Cc1cc(C)n2ncc(C(=O)N[C@H]3CC[C@@]4(CCN(c5ccc(F)cc5)C4=O)CC3)c2n1 [Example 211, N-[(trans)-2-(4-fluorophenyl)-1-oxo-2-azaspiro[4.5]dec-8-yl]-5,7-di methyl pyrazolo[1,5-a]pyrimidine-3-carboxamide] | 0.074 µM | 0.27 µM | 25 µM
6 | CNC(=O)c1[nH]cnc1C(=O)N[C@H]1CC[C@@]2(CCN(c3ccc(F)cc3)C2=O)CC1 [Example 212, N^4-[(trans)-2-(4-fluorophenyl)-1-oxo-2-azaspiro[4.5]dec-8-yl]-N^5-methyl-1H-imidazole-4,5-dicarboxamide] | 0.29 µM | 0.088 µM | 38 µM
7 | CCNC(=O)c1[nH]cnc1C(=O)N[C@H]1CC[C@@]2(CCN(c3ccc(F)cc3)C2=O)CC1 [Example 213, N^5-ethyl-N^4-[(trans)-2-(4-fluorophenyl)-1-oxo-2-azaspiro[4.5]dec-8-yl]-1H-imidazole-4,5-dicarboxamide] | 0.22 µM | 0.14 µM | 30 µM
8 | Cc1nn2cccnc2c1C(=O)N[C@H]1CC[C@@]2(CCN(c3ccc(F)cc3Cl)C2=O)CC1 [Example 216, N-[(trans)-2-(2-chloro-4-fluorophenyl)-1-oxo-2-azaspiro[4.5]dec-8-yl]-2-methylpyrazolo[1,5-a]pyrimidine-3-carboxamide] | 0.34 µM | 0.071 µM | ≥ 50 µM
9 | CC(C)(C)OC(=O)N1CCN(c2ccn3ncc(C(=O)N[C@H]4CC[C@@]5(CCN(c6ccc(F)cc6Cl)C5=O)CC4)c3n2)CC1 [Example 225, tert-butyl 4-(3-{[(trans)-2-(2-chloro-4-fluorophenyl)-1-oxo-2-azaspiro[4.5]dec-8-yl]carbamoyl}pyrazolo[1,5-a]pyrimidin-5-yl)piperazine-1-carboxylate] | 0.0025 µM | 0.059 µM | ≥ 50 µM
10 | O=C(N[C@H]1CC[C@@]2(CCN(c3ccccc3Cl)C2=O)CC1)c1cnn2cccnc12 [Example 256, N-[(trans)-2-(2-chlorophenyl)-1-oxo-2-azaspiro[4.5]dec-8-yl]pyrazolo[1,5-a]pyrimidine-3-carboxamide] | 0.012 µM | 0.0023 µM | ≥ 50 µM

Second part, led by results:

Row | IC50 (TNKS2) | IC50 [2] | Structure (SMILES) | IC50 [1]
11 | 0.0053 µM | 0.016 µM | O=C(N[C@H]1CC[C@@]2(CCN(c3ccc(F)cc3Cl)C2=O)CC1)c1cnn2cc(CCO)cnc12 [Example 214, N-[(trans)-2-(2-chloro-4-fluorophenyl)-1-oxo-2-azaspiro[4.5]dec-8-yl]-6-(2-hydroxyethyl)pyrazolo[1,5-a]pyrimidine-3-carboxamide] | ≥ 50 µM
12 | 0.0022 µM | 0.0055 µM | CNc1ccn2ncc(C(=O)N[C@H]3CC[C@@]4(CCN(c5ccc(F)cc5Cl)C4=O)CC3)c2n1 [Example 215, N-[(trans)-2-(2-chloro-4-fluorophenyl)-1-oxo-2-azaspiro[4.5]dec-8-yl]-5-(methylamino)pyrazolo[1,5-a]pyrimidine-3-carboxamide] | ≥ 50 µM
13 | 0.0017 µM | 0.0037 µM | CN(C)c1ccn2ncc(C(=O)N[C@H]3CC[C@@]4(CCN(c5ccc(F)cc5Cl)C4=O)CC3)c2n1 [Example 217, N-[(trans)-2-(2-chloro-4-fluorophenyl)-1-oxo-2-azaspiro[4.5]dec-8-yl]-5-(dimethylamino)pyrazolo[1,5-a]pyrimidine-3-carboxamide] | ≥ 50 µM
14 | 0.0048 µM | 0.016 µM | COc1ccn2ncc(C(=O)N[C@H]3CC[C@@]4(CCN(c5ccc(F)cc5Cl)C4=O)CC3)c2n1 [Example 218, N-[(trans)-2-(2-chloro-4-fluorophenyl)-1-oxo-2-azaspiro[4.5]dec-8-yl]-5-methoxypyrazolo[1,5-a]pyrimidine-3-carboxamide] | ≥ 50 µM
15 | 0.0038 µM | 0.0015 µM | Cc1ccn2ncc(C(=O)N[C@H]3CC[C@@]4(CCN(c5ccc(F)cc5Cl)C4=O)CC3)c2n1 [Example 221, N-[(trans)-2-(2-chloro-4-fluorophenyl)-1-oxo-2-azaspiro[4.5]dec-8-yl]-5-methylpyrazolo[1,5-a]pyrimidine-3-carboxamide] | 18 µM
16 | 0.0065 µM | 0.0021 µM | Cc1ccnc2c(C(=O)N[C@H]3CC[C@@]4(CCN(c5ccc(F)cc5Cl)C4=O)CC3)cnn12 [Example 222, N-[(trans)-2-(2-chloro-4-fluorophenyl)-1-oxo-2-azaspiro[4.5]dec-8-yl]-7-methylpyrazolo[1,5-a]pyrimidine-3-carboxamide] | ≥ 50 µM
17 | 0.011 µM | 0.00083 µM | Cc1cc(C(F)F)n2ncc(C(=O)N[C@H]3CC[C@@]4(CCN(c5ccc(F)cc5Cl)C4=O)CC3)c2n1 [Example 224, N-[(trans)-2-(2-chloro-4-fluorophenyl)-1-oxo-2-azaspiro[4.5]dec-8-yl]-7-(difluoromethyl)-5-methylpyrazolo[1,5-a]pyrimidine-3-carboxamide] | ≥ 50 µM
18 | 0.0033 µM | 0.032 µM | O=C(N[C@H]1CC[C@@]2(CCN(c3ccc(F)cc3Cl)C2=O)CC1)c1cnn2ccc(N3CCNCC3)nc12 [Example 226, N-[(trans)-2-(2-chloro-4-fluorophenyl)-1-oxo-2-azaspiro[4.5]dec-8-yl]-5-(piperazin-1-yl)pyrazolo[1,5-a]pyrimidine-3-carboxamide hydrochloric acid salt] | ≥ 0.5 µM
19 | 0.0033 µM | 0.0064 µM | O=C(N[C@H]1CC[C@@]2(CCN(c3ccc(F)cc3Cl)C2=O)CC1)c1cnn2ccc(N3CCCC3)nc12 [Example 232, N-[(trans)-2-(2-chloro-4-fluorophenyl)-1-oxo-2-azaspiro[4.5]dec-8-yl]-5-(pyrrolidin-1-yl)pyrazolo[1,5-a]pyrimidine-3-carboxamide] | ≥ 50 µM
20 | 0.025 µM | 0.009 µM | O=C(N[C@H]1CC[C@@]2(CCN(c3ccc(F)cc3Cl)C2=O)CC1)c1cnn2c(C(F)(F)F)ccnc12 [Example 233, N-[(trans)-2-(2-chloro-4-fluorophenyl)-1-oxo-2-azaspiro[4.5]dec-8-yl]-7-(trifluoromethyl)pyrazolo[1,5-a]pyrimidine-3-carboxamide] | ≥ 50 µM

Reference: patent publication US20180148418A1, “AMIDO-SUBSTITUTED CYCLOHEXANE DERIVATIVES” (Bayer Pharma Aktiengesellschaft, priority 2015, published 2018)
